# In article PMC7336998, “Discovery of secondary sulphonamides as IDO1 inhibitors with potent antitumour effects in vivo” (Journal of Enzyme Inhibition and Medicinal Chemistry, 2020):
# Legend:
# [1] = target: T1, IDO1 (Homo sapiens, UniProt P14902); test: HeLa cell-based IDO1/kynurenine assay; conditions: for inhibition at 30 µM: percentage inhibition at 30 μM, IFN-γ-treated HeLa cells, kynurenine in media; for IC50: HeLa cells, IFN-γ induced IDO1, kynurenine readout
# T1 construct: a human cervical cancer cell line HeLa that endogenously expresses IDO1 upon IFN-γ treatment; endogenous in cells; host or cells: HeLa cells treated with human IFN-γ
# Description: (§1) The main bioassays performed in the study, including HeLa cell-based IDO1/kynurenine assay, Western blot analysis, T cell proliferation and Treg cell differentiation experiments, were carried out as described previously.
# It is well known that IDO1 is broadly expressed in human cancers and is induced by pro-inflammatory cytokines, such as interferon gamma (IFN-γ) and tumour necrosis factor alpha (TNF-α)[41]. Here we utilised a human cervical cancer cell line HeLa that endogenously expresses IDO1 upon IFN-γ treatment to evaluate the IDO1 inhibitory activity of the synthesised compounds by measuring kynurenine secreted into the media. […] Thus, we also employed this cellular assay to detect false positive IDO1 inhibitors and cytotoxic compounds by measuring HeLa cell viability. Clinical candidate navoximod was used as an assay control.
# [2] = test system: IDO1 protein expression; test: Western blot of IDO1 protein expression in IFN-γ-treated HeLa cells; type: cell-based, human; conditions: HeLa cells, IFN-γ 100 ng/mL 24 h, then compounds at their IC50 concentrations for 24 h
# Description: as §1
# To exclude the possibility that these secondary sulphonamides inhibit IDO1 activity by down-regulating IDO1 expression, we utilised Western blot to measure the expression of IDO1 protein in HeLa cells treated with different compounds.
# Figure 3. […] (B) The greyscale scanning statistical results of A. (C) HeLa cells were incubated with compound 5d (3, 10, 30 μM) for 24 h. (D) The greyscale scanning statistical results of C. (E) HeLa cells were incubated with compound 5d (3, 10, 30 μM) for 48 h. (F) The greyscale scanning statistical results of E. Data are presented as means ± SEM (n = 3).
# T1 sequence (P14902 whole entry): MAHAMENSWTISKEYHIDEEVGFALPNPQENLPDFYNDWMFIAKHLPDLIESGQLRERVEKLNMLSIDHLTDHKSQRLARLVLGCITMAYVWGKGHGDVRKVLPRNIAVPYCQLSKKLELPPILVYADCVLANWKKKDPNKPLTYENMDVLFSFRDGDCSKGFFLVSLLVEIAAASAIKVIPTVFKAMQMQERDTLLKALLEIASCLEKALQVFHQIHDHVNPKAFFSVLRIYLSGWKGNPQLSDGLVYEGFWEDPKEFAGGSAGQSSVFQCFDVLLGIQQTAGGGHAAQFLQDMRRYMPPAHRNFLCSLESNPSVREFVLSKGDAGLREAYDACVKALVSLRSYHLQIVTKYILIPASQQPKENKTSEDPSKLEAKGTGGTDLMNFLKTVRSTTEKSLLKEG
Structure (SMILES),inhibition at 30 µM [1] [%],melting point [°C],IC50 [1] [µM],expression of IDO1 protein [2]
"CC(=O)Nc1ccc(S(=O)(=O)NCCc2ccccc2)cc1 [3i, N-(4-(N-Phenethylsulfamoyl)phenyl)acetamide]",5.9,130 to 132,,
"Nc1ccc(S(=O)(=O)NCCc2ccccc2)cc1 [4f, 4-Amino-N-phenethylbenzenesulfonamide]",3.1,,,
"CC(=O)Nc1ccc(S(=O)(=O)Nc2cccc(C(C)C)c2)cc1 [3d, N-(4-(N-(3-Isopropylphenyl)sulfamoyl)phenyl)acetamide]",14.6,158 to 160,,
"C=CC(=O)Nc1ccc(S(=O)(=O)Nc2ccc(OC)cc2)cc1 [8c, N-(4-(N-(4-Methoxyphenyl)sulfamoyl)phenyl)acrylamide]",20.9,234 to 235,,
"C=CC(=O)Nc1ccc(S(=O)(=O)NCc2ccc(Br)cc2)cc1 [5k, N-(4-(N-(4-Bromobenzyl)sulfamoyl)phenyl)acrylamide]",37.5,194 to 196,42.1,
"CC(=O)Nc1ccc(S(=O)(=O)NCc2ccccc2)cc1 [3e, N-(4-(N-Benzylsulfamoyl)phenyl)acetamide]",2.5,,,
"C=CC(=O)Nc1ccc(S(=O)(=O)NCCc2ccccc2)cc1 [5e, N-(4-(N-Phenethylsulfamoyl)phenyl)acrylamide]",55.2,154 to 156,26.3,
"Cc1ccc(NS(=O)(=O)c2ccc(N)cc2)cc1 [4b, 4-Amino-N-(p-tolyl)benzenesulfonamide]",10.8,,,
"C=CC(=O)Nc1ccc(S(=O)(=O)NCc2ccc(Cl)c(Cl)c2)cc1 [5m, N-(4-(N-(3,4-Dichlorobenzyl)sulfamoyl)phenyl)acrylamide]",44,148 to 150,37.3,
"C=CC(=O)Nc1ccc(S(=O)(=O)NCc2cccc(F)c2)cc1 [5i, N-(4-(N-(3-Fluorobenzyl)sulfamoyl)phenyl)acrylamide]",37.8,152 to 154,39.5,
"CC(=O)Nc1ccc(S(=O)(=O)Nc2ccccc2)cc1 [3a, N-(4-(N-Phenylsulfamoyl)phenyl)acetamide]",3.9,204 to 206,,
"Nc1ccc(S(=O)(=O)NCc2ccccc2)cc1 [4c, 4-Amino-N-benzylbenzenesulfonamide]",7.4,,,
"CC(=O)Nc1ccc(S(=O)(=O)NCc2ccc(Cl)cc2)cc1 [3f, N-(4-(N-(4-Chlorobenzyl)sulfamoyl)phenyl)acetamide]",13.5,172 to 174,,
"C=CC(=O)Nc1ccc(S(=O)(=O)NCc2ccc(F)cc2)cc1 [5h, N-(4-(N-(4-Fluorobenzyl)sulfamoyl)phenyl)acrylamide]",70.9,178 to 180,20.5,
"CC(=O)Nc1ccc(S(=O)(=O)NCc2ccc(C(F)(F)F)cc2)cc1 [3g, N-(4-(N-(4-(Trifluoromethyl)benzyl)sulfamoyl)phenyl)acetamide]",14.5,186 to 188,,
"Nc1ccc(S(=O)(=O)NCc2cccc(Cl)c2)cc1 [4e, 4-Amino-N-(3-chlorobenzyl)benzenesulfonamide]",2.3,119 to 121,> 50,
"C=CC(=O)Nc1ccc(S(=O)(=O)Nc2ncccn2)cc1 [8h, N-(4-(N-(Pyrimidin-2-yl)sulfamoyl)phenyl)acrylamide]",16.4,229 to 230,,
"CC(=O)Nc1ccc(S(=O)(=O)NCc2cccc(C(F)(F)F)c2)cc1 [3h, N-(4-(N-(3-(Trifluoromethyl)benzyl)sulfamoyl)phenyl)acetamide]",7.8,154 to 156,,

Structure (SMILES),inhibition at 30 µM [1] [%],melting point [°C],IC50 [1] [µM],expression of IDO1 protein [2]
"C=CC(=O)Nc1ccc(S(=O)(=O)Nc2cccc(Cl)c2)cc1 [8f, N-(4-(N-(3-Chlorophenyl)sulfamoyl)phenyl)acrylamide]",89.5,217 to 219,9.48,did not influence IDO1 expression
"C=CC(=O)Nc1ccc(S(=O)(=O)NCc2ccc(C(F)(F)F)cc2)cc1 [5f, N-(4-(N-(4-(Trifluoromethyl)benzyl)sulfamoyl)phenyl)acrylamide]",38.2,198 to 200,39.2,
"C=CC(=O)Nc1ccc(S(=O)(=O)NCc2cccc(C(F)(F)F)c2)cc1 [5g, N-(4-(N-(3-(Trifluoromethyl)benzyl)sulfamoyl)phenyl)acrylamide]",49.5,152 to 154,30.5,
"CC(=O)Nc1ccc(S(=O)(=O)Nc2ccc(C(C)C)cc2)cc1 [3c, N-(4-(N-(4-Isopropylphenyl)sulfamoyl)phenyl)acetamide]",5.9,186 to 188,,
"C=CC(=O)Nc1ccc(S(=O)(=O)NCc2ccccc2Cl)cc1 [5j, N-(4-(N-(2-Chlorobenzyl)sulfamoyl)phenyl)acrylamide]",65.1,178 to 180,22.7,
"Nc1ccc(S(=O)(=O)NCc2ccc(Cl)cc2)cc1 [4d, 4-Amino-N-(4-chlorobenzyl)benzenesulfonamide]",-4.2,172 to 174,,
"C=CC(=O)Nc1ccc(S(=O)(=O)Nc2onc(C)c2C)cc1 [8i, N-(4-(N-(3,4-Dimethylisoxazol-5-yl)sulfamoyl)phenyl)acrylamide]",23.6,206 to 208,,
"Nc1ccc(S(=O)(=O)Nc2ccccc2)cc1 [4a, 4-Amino-N-phenylbenzenesulfonamide]",12,,,
"C=CC(=O)Nc1ccc(S(=O)(=O)Nc2cccc(F)c2)cc1 [8e, N-(4-(N-(3-Fluorophenyl)sulfamoyl)phenyl)acrylamide]",69.7,212 to 215,17.7,
"C=CC(=O)Nc1ccc(S(=O)(=O)NCc2ccc(Cl)cc2)cc1 [5c, N-(4-(N-(4-Chlorobenzyl)sulfamoyl)phenyl)acrylamide]",40.4,190 to 192,36.2,
"C=CC(=O)Nc1ccc(S(=O)(=O)Nc2ccccc2)cc1 [8a, N-(4-(N-Phenylsulfamoyl)phenyl)acrylamide]",85.9,212 to 213,13.2,
"C=CC(=O)Nc1ccc(S(=O)(=O)Nc2cc(C)on2)cc1 [8j, N-(4-(N-(5-Methylisoxazol-3-yl)sulfamoyl)phenyl)acrylamide]",22.7,232 to 233,,
"C=CC(=O)Nc1ccc(S(=O)(=O)NCc2ccc(OC)cc2)cc1 [5b, N-(4-(N-(4-Methoxybenzyl)sulfamoyl)phenyl)acrylamide]",36,156 to 158,40.1,
"CC(=O)Nc1ccc(S(=O)(=O)Nc2ccc(C)cc2)cc1 [3b, N-(4-(N-(p-Tolyl)sulfamoyl)phenyl)acetamide]",16.3,,,
"C=CC(=O)Nc1ccc(S(=O)(=O)Nc2ccc(C)cc2)cc1 [8b, N-(4-(N-(p-Tolyl)sulfamoyl)phenyl)acrylamide]",25.3,230 to 232,,
"C=CC(=O)Nc1ccc(S(=O)(=O)NCc2ccccc2)cc1 [5a, N-(4-(N-Benzylsulfamoyl)phenyl)acrylamide]",62.5,116 to 118,22.4,
"C=CC(=O)Nc1ccc(S(=O)(=O)Nc2cccc(OC)c2)cc1 [8d, N-(4-(N-(3-Methoxyphenyl)sulfamoyl)phenyl)acrylamide]",74.8,197 to 199,13.4,
